From patent publication US20100021885A1, “REAGENT SETS AND GENE SIGNATURES FOR NON-GENOTOXIC HEPATOCARCINOGENICITY” (priority 2006, published 2010)
Read-outs that look alike come from different tables or passages of the source.

Legend:
[1] = test system: livers from treated male Sprague-Dawley rats
Method: Briefly, in vivo short-term repeat dose rat studies were conducted on over 580 test compounds, including marketed and withdrawn drugs, environmental and industrial toxicants, and standard biochemical reagents. Rats (three per group) were dosed daily at either a low or high dose. […] Animals were necropsied on days 0.25, 1, 3, and 5 or 7. Up to 13 tissues (e.g., liver, kidney, heart, bone marrow, blood, spleen, brain, intestine, glandular and nonglandular stomach, lung, muscle, and gonads) were collected for histopathological evaluation and microarray expression profiling on the Amersham CodeLink™ RU1 platform (also referred to herein as “CodeLink Uniset™ Rat 1 Bioarray”). In addition, a clinical pathology panel consisting of 37 clinical chemistry and hematology parameters was generated from blood samples collected on days 3 and 5.
The remaining 21 NGTC chemicals and 26 NC chemicals were reserved for independent validation of the signature. Each chemical was evaluated in a short term repeat dose in vivo study in male Sprague-Dawley rats (n=3/group). The livers from treated and control rats were collected after 1, 3 and 5 days of dosing and RNA was extracted for gene expression profiling. Gene expression changes in treated animals were compared to suitably matched controls and represented as average log10 ratios for each treatment group. Since the development of tumors is a long term multi-step process, the 100 training set chemicals were profiled at the latest time point in order to capture gene expression changes that were likely to be reflective of repeat dose treatment effects that contribute to carcinogenicity and not reflective of an initial stimulus following a single dose that may be transient in nature.
Male Sprague-Dawley (Crl:CD®(SD)(IGS)BR) rats (weight matched, 7 to 8 weeks of age and averaging 200 to 250 g) were purchased from Charles River Laboratories (Portage, Mich.) and housed individually in hanging, stainless steel, wire-bottom cages in a temperature (66-77° F.), light (12-hour dark/light cycle) and humidity (30-70%) controlled room. […] Housing and treatment of the animals were in accordance with regulations outlined in the USDA Animal Welfare Act (9 CFR Parts 1, 2 and 3). Animals were assigned to groups such that mean body weights were within 10% of the mean vehicle control group. Test articles were administered either orally (10 ml of corn oil/kg body weight) or by intra-peritoneal injection (5 ml of saline/kg body weight), as indicated. Animals were dosed once daily starting on day 0, and necropsied 24 hrs after the last dose, as indicated. An equivalent number of time- and vehicle-matched control rats were treated concurrently.
Briefly, liver samples from 3 rats were chosen from each treatment and control group for gene expression analysis on the Codelink Uniset™ Rat 1 Bioarray (GE Healthcare Bio-Sciences Corp., Piscataway, N.J.). A complete list of probes on the array is provided on the Amersham Biosciences web site (www.amershambiosciences.com). Log transformed signal data for all probes were array-wise normalized used Array Qualifier (Novation Biosciences, Palo Alto, Calif.), a non-linear centralization normalization procedure adapted for the CodeLink microarray platform. Log10 ratios for each experimental group are computed as the difference between the average of the logs of the normalized experimental signals and the average of the logs of the normalized control signals for each gene.
where S is the scalar product and b is the bias term. Evaluation of S for a test experiment across the n genes in the signature determines what side of the hyperplane in m dimensional space the test experiment lies, and thus the result of the classification. Experiments with scalar products greater than 0 are considered positive for non-genotoxic hepatocarcinogenicity.

liver of rats = conditions: cited from earlier work
[2] = male, Sprague-Dawley, rat, in vivo
[3] = test chemicals, literature class NGTC or NC
[4] = literature-curated: induction of neoplastic lesions in the liver of rats, two year rodent bioassay results and/or class effect information
[5] = maximum of days 1, 3, 5, greater than zero = classified non-genotoxic hepatocarcinogen

CN(C)CCCC1(c2ccc(F)cc2)OCc2cc(C#N)ccc21 (stereo not drawn) [CITALOPRAM]
Max (maximum scalar product observed over the multiple time points) [1, 2]: −0.28

C[C@]12CC[C@@H]3c4ccc(OC(=O)c5ccccc5)cc4CC[C@H]3[C@@H]1CC[C@@H]2O [BETA-ESTRADIOL 3-BENZOATE]
Day 1 (scalar product) ([1]; Female, 37 gene signature, day 1): 0.81 | Day 3 (scalar product) ([1]; Female, 37 gene signature, day 3): 0.25 | Day 5 (scalar product) ([1]; Female, 37 gene signature, day 5): 0.03 | Max (maximum scalar product) ([1]; Female, maximum of days 1, 3, 5): 0.81

CC/C(=C(/CC)c1ccc(O)cc1)c1ccc(O)cc1 [DIETHYLSTILBESTROL]
Max (maximum scalar product observed over the multiple time points) [1, 2]: 2.75 | Class (liver of rats; [3]): NGTC

aflatoxin B1
Class (liver of rats; rat, in vivo): GTC

COC(=O)Nc1nc2ccc([S+]([O-])c3ccccc3)cc2[nH]1 (stereo not drawn) [OXFENDAZOLE]
Max (maximum scalar product observed over the multiple time points) [1, 2]: 0.32 | Class (liver of rats; [3]): NGTC

CC(C)OC(=O)C(C)(C)Oc1ccc(C(=O)c2ccc(Cl)cc2)cc1 [FENOFIBRATE]
Class (liver of rats; [4]): NGTC

CCOC(=O)C(C)(C)Oc1ccc(Cl)cc1 [CLOFIBRATE]
Class (liver of rats; [4]): NGTC

CCN(CC)CCOc1ccc(C(=C(Cl)c2ccccc2)c2ccccc2)cc1 [CLOMIPHENE]
Max (maximum scalar product observed over the multiple time points) [1, 2]: −1.71

NN [hydrazine, reference compound]
Day 1 (scalar product) ([1]; male, rat, in vivo): −0.10 | Day 3 (scalar product) ([1]; male, rat, in vivo): −1.31 | Day 5 (scalar product) ([1]; male, rat, in vivo): −1.48 | Max (maximum scalar product observed over the multiple time points) ([1]; male, rat, in vivo): −0.10 | signature prediction for non-genotoxic hepatocarcinogenicity ([1]; rat, in vivo): negative | Class (liver of rats; rat, in vivo): GTC

Clc1cc2c(cc1Cl)Oc1cc(Cl)c(Cl)cc1O2 [2,3,7,8-TETRACHLORODIBENZO-P-DIOXIN]
Class (liver of rats; [4]): NGTC

CC(C)(Oc1ccc(C2CCCc3ccccc32)cc1)C(=O)O (stereo not drawn) [NAFENOPIN]
Class (liver of rats; [4]): NGTC

Cc1ccnc2c1NC(=O)c1cccnc1N2C1CC1 [NEVIRAPINE]
Max (maximum scalar product observed over the multiple time points) [1, 2]: −0.38

CC(C)=CCC/C(C)=C/CO [GERANIOL]
Max (maximum scalar product observed over the multiple time points) [1, 5]: −0.30

CN(C)[C@@H]1C(O)=C(C(N)=O)C(=O)[C@@]2(O)C(O)=C3C(=O)c4c(O)cccc4[C@@](C)(O)[C@H]3C[C@@H]12 [TETRACYCLINE]
Day 1 (scalar product) ([1]; male, rat, in vivo): −0.40 | Day 3 (scalar product) ([1]; male, rat, in vivo): −1.18 | Day 5 (scalar product) ([1]; male, rat, in vivo): −1.31 | Max (maximum scalar product observed over the multiple time points) ([1]; male, rat, in vivo): −0.40

CN(C)CCN(Cc1cccs1)c1ccccn1
Class (liver of rats; [4]): NGTC

c1ccc2c(c1)Nc1ccccc1S2 [PHENOTHIAZINE]
Max (maximum scalar product observed over the multiple time points) [1, 5]: 0.70

CC(C)c1c(C(=O)Nc2ccccc2)c(-c2ccccc2)c(-c2ccc(F)cc2)n1CC[C@@H](O)C[C@@H](O)CC(=O)O [ATORVASTATIN]
Max (maximum scalar product observed over the multiple time points) [1, 2]: 1.85

OCCOCCN1CCN(C2=Nc3ccccc3Sc3ccccc32)CC1 [QUETIAPINE]
Max (maximum scalar product observed over the multiple time points) [1, 2]: −0.42

CC(NC(C)(C)C)C(=O)c1cccc(Cl)c1 (stereo not drawn) [BUPROPION]
Class (liver of rats; [4]): NGTC

CC(=O)[C@H]1CC[C@H]2[C@@H]3CCC4=CC(=O)CC[C@]4(C)[C@H]3CC[C@]12C [PROGESTERONE]
Class (liver of rats; [4]): NGTC

COc1ccc(C(CN(C)C)C2(O)CCCCC2)cc1 (stereo not drawn) [VENLAFAXINE]
Max (maximum scalar product observed over the multiple time points) [1, 5]: −0.95

CC[C@H](C)C(=O)O[C@H]1C[C@H](O)C=C2C=C[C@H](C)[C@H](CC[C@@H](O)C[C@@H](O)CC(=O)O)[C@H]21 [PRAVASTATIN]
Class (liver of rats; [4]): NGTC

CN1C(=O)CN=C(c2ccccc2)c2cc(Cl)ccc21 [DIAZEPAM]
Day 1 (scalar product) ([1]; male, rat, in vivo): −1.40 | Day 3 (scalar product) ([1]; male, rat, in vivo): −0.06 | Day 5 (scalar product) ([1]; male, rat, in vivo): 0.52 | Max (maximum scalar product observed over the multiple time points) ([1]; male, rat, in vivo): 0.52

Cc1ccc(C)c(OCCCC(C)(C)C(=O)O)c1 [GEMFIBROZIL]
Class (liver of rats; [4]): NGTC

Cc1cccc(C)c1NC(=O)C(C)N (stereo not drawn) [TOCAINIDE]
Max (maximum scalar product observed over the multiple time points) [1, 2]: −0.91

Clc1ccc2c(c1)C(N1CCNCC1)=Nc1ccccc1O2 [AMOXAPINE]
Max (maximum scalar product observed over the multiple time points) [1, 2]: −1.00

CC(O)CO (stereo not drawn) [propylene glycol, reference compound]
Max (maximum scalar product observed over the multiple time points) [1, 2]: −0.80 | signature prediction for non-genotoxic hepatocarcinogenicity ([1]; rat, in vivo): negative

C=C1CC[C@H](O)C/C1=C/C=C1\CCC[C@]2(C)[C@@H]([C@H](C)CCCC(C)C)CC[C@@H]12 [CHOLECALCIFEROL]
Max (maximum scalar product observed over the multiple time points) [1, 5]: −1.38

CCOC(=O)n1ccn(C)c1=S [CARBIMAZOLE]
Max (maximum scalar product observed over the multiple time points) [1, 2]: −0.38

CCC1=C[C@@H]2CN(C1)Cc1c([nH]c3ccccc13)[C@@](C(=O)OC)(c1cc3c(cc1OC)N(C)[C@H]1[C@@](O)(C(=O)OC)[C@H](OC(C)=O)[C@]4(CC)C=CCN5CC[C@]31[C@@H]54)C2 [VINORELBINE]
Max (maximum scalar product observed over the multiple time points) [1, 2]: −1.37

C[C@]12C/C(=C/O)C(=O)C[C@@H]1CC[C@@H]1[C@@H]2CC[C@@]2(C)[C@H]1CC[C@]2(C)O [OXYMETHOLONE]
Max (maximum scalar product observed over the multiple time points) [1, 5]: −0.36

CC(C)(Oc1ccc(Cl)cc1)C(=O)O [CLOFIBRIC ACID]
Max (maximum scalar product observed over the multiple time points) [1, 2]: 0.86

Nc1ccn([C@@H]2O[C@H](CO)[C@@H](O)[C@@H]2O)c(=O)n1 [CYTARABINE]
Max (maximum scalar product observed over the multiple time points) [1, 2]: −0.71

CC[C@H]1OC(=O)[C@H](C)[C@@H](O[C@H]2C[C@@](C)(OC)[C@@H](O)[C@H](C)O2)[C@H](C)[C@@H](O[C@@H]2O[C@H](C)C[C@H](N(C)C)[C@H]2O)[C@](C)(O)C[C@@H](C)C(=O)[C@H](C)[C@@H](O)[C@]1(C)O [ERYTHROMYCIN]
Max (maximum scalar product observed over the multiple time points) [1, 2]: −1.18

Cc1cccc(Nc2cc(Cl)nc(SCC(=O)O)n2)c1C [PIRINIXIC ACID]
Class (liver of rats; [4]): NGTC

C[C@]12CCC(=O)C=C1CC[C@@H]1[C@@H]2CC[C@@]2(C)[C@H]1CC[C@]2(C)O [17-METHYLTESTOSTERONE]
Class (liver of rats; [4]): NGTC

O=C(c1ccc(OCCN2CCCCC2)cc1)c1c(-c2ccc(O)cc2)sc2cc(O)ccc12 [RALOXIFENE, reference compound]
Max (maximum scalar product) ([1]; female, Sprague-Dawley, rat, in vivo): −0.66 | Day 1 (scalar product) ([1]; female, Sprague-Dawley, rat, in vivo, 1 day): −0.66 | Day 3 (scalar product) ([1]; female, Sprague-Dawley, rat, in vivo, 3 days): −1.25 | Day 5 (scalar product) ([1]; female, Sprague-Dawley, rat, in vivo, 5 days): −2.11

CC(C)(C)NC(=O)[C@H]1CC[C@H]2[C@@H]3CC[C@H]4NC(=O)C=C[C@]4(C)[C@H]3CC[C@]12C [FINASTERIDE]
Max (maximum scalar product observed over the multiple time points) [1, 2]: 0.22

C=C(Cl)Cl [1,1-dichloroethene, reference compound]
signature prediction for non-genotoxic hepatocarcinogenicity ([1]; 37 gene signature, maximum scalar product over days 1, 3 and 5, scalar product greater than zero = positive): negative | Max (maximum scalar product observed over the multiple time points) [1, 5]: −0.80

C[C@]12CC[C@@H]3c4ccc(O)cc4CC[C@H]3[C@@H]1C[C@@H](O)[C@@H]2O [ESTRIOL]
Class (liver of rats; rat, in vivo): NGTC

CCCC(C)C1(CC)C(=O)NC(=O)NC1=O (stereo not drawn) [PENTOBARBITAL]
Class (liver of rats; [4]): NGTC

CC(C)(C)CC(C)(C)c1ccc(OCCOCC[N+](C)(C)Cc2ccccc2)cc1 [BENZETHONIUM CHLORIDE]
Day 1 (scalar product) ([1]; male, rat, in vivo): −0.13 | Day 3 (scalar product) ([1]; male, rat, in vivo): −1.34 | Day 5 (scalar product) ([1]; male, rat, in vivo): −1.68 | Max (maximum scalar product observed over the multiple time points) ([1]; male, rat, in vivo): −0.13

C=CCc1ccc2c(c1)OCO2 [SAFROLE]
Class (liver of rats; rat, in vivo): NGTC

CCO [ETHANOL]
Class (liver of rats; [4]): NGTC

CN(C)CCCN1c2ccccc2CCc2ccc(Cl)cc21 [CLOMIPRAMINE]
Max (maximum scalar product observed over the multiple time points) [1, 2]: −1.46

C#C[C@]1(O)CC[C@H]2[C@@H]3CCc4cc(O)ccc4[C@H]3CC[C@@]21C [ETHINYLESTRADIOL]
Class (liver of rats; [4]): NGTC

CC(=N)S [THIOACETAMIDE]
Class (liver of rats; [4]): NGTC

O=C1Nc2ccc(Cl)cc2C(c2ccccc2Cl)=NC1O (stereo not drawn) [LORAZEPAM]
Max (maximum scalar product observed over the multiple time points) [1, 5]: 0.10
